Measured values: article PMC7866087, “Evaluation of Computationally Designed Peptides against TWEAK, a Cytokine of the Tumour Necrosis Factor Ligand Family” (International Journal of Molecular Sciences, 2021)
“And” between values parts separate entries of the source, which are not always exact repeats. Equal values may be shown once. Values belong to the substance of their own block, whether it stands above or below them. No end group written: not given here.

Assays:
[1] = system: TWEAK-Fn14 signalling pathway, BRV5 cells; test: Cell-based screening of individual peptides, gene expression microarray in TWEAK-stimulated BRV5 cells; parameters: species or system human; settings: 6 h; for BIRC2 mRNA expression (normalized to NARS2) / HSP90B1 mRNA expression (normalized to NARS2) / IL6 mRNA expression (normalized to NARS2) / JUN mRNA expression (normalized to NARS2) / MAP4K4 mRNA expression (normalized to NARS2) / MAPK14 mRNA expression (normalized to NARS2) / NFKB2 mRNA expression (normalized to NARS2) / TNFRSF12A mRNA expression (normalized to NARS2) / TRAF2 mRNA expression (normalized to NARS2): 450 µM
Excerpt: Pool 1 and 5 were therefore deconstructed to assess the effect of individual peptides and their activity on same cell-based screening. Pools 1 and 5 were composed of peptides 45, 46, 42, 3, 49, 11, and 13; and of peptides 1, 9, 30, 35, 41, 43, 7, and 14, respectively. As before, and shown in Figure 4B, the level of expression of probe genes on TWEAK-stimulated (T) BRV5 cells is overall higher than on non-stimulated (NT) one. […] The structural model of peptides 43, 30, 35 and 49 bound to TWEAK can be seen in Figure 5 and Supplementary Materials Figures S4–S6, respectively.
Three different cell lines were used in this study: BRV5, MDA-MB 435 (435-P), and HT29. The BRV5 is a highly metastatic brain cell line, obtained in one of our laboratories by primary culture from a brain of a nude mouse inoculated with human 435-Br1 brain metastatic cells, as previously described and used as a model to test the peptides in cell cultures. […] The triple negative 435-P cell line is a useful human breast cancer model that expresses both epithelial and melanocytic markers, and was included as the parental cell from which 435-Br1 metastatic variant was initially originated (both cell lines kindly provided by Dr Fabra at IDIBELL Institute, Hospitalet de Llobregat, Spain). Finally, HT29 human colon carcinoma cells obtained from the European Type Culture Collection (ECACC 91072201) were used as a positive control of TWEAK dependent Fn14 over-expressing cells to evaluate TWEAK-Fn14 axis of brain metastatic variants.
Appropriate cell culture conditions were established as the controls needed in the expression of genes with and without peptides and with and without TWEAK activation, both as pools and individually (see Supplementary Materials Figure S2). The protocol started with the seeding of 125,000 cells/well in 500 µL of culture media supplemented with 10% fetal bovine serum (CM+FBS10%) in 24-well dishes for 24 h before removing FBS (CM-FBS). After overnight starvation in CM-FBS culture, different peptide treatment conditions (at final concentration of 450 µM) were established in the presence or absence of TWEAK (25 ng/mL final concentration) (Peprotech EC, Ltd., London, UK). Some cells were treated with peptides at a single, unique, initial dose (time 0) while other were treated with repeated doses to account for the effect cell-culture degradation. These include a repeated treatment every hour (i.e., […]), every two hours (time 0, 2, and 4) and every three hours (time 0 and 3)—see Supplementary Materials Figure S2 for diagrammatic depiction. At time 6 (after six hours) cells were lysed and RNA extracted for transcriptomic analyses (see next). Cell were culture for six hours as this was the time needed to achieve the highest upregulation of the TWEAK-Fn14 axis upon TWEAK treatment as shown in previous time-course RT-PCR experiments (see Figure 2).
RNA from cells was extracted 6 h after treatments by direct lysis on the well. The RNeasy Micro kit (Qiagen, Hilden, Germany) was used to isolate total RNA from cell lysate following manufacturer’s protocols including an additional step of digestion with DNase I (Qiagen, Hilden, Germany). Total RNA concentration was measured in a NanoDrop 1000 spectrophotometer (Thermo Scientific, Waltham, MA, USA). The RNA extracted from treated and untreated cells (see above) was used as a proxy for gene expression.
The quantitative RT-PCR was performed using Fluidigm Dynamic Array FlexSix array with the specific primers for gene expression (Delta Genes Assays, Wet lab tested on Dynamic Array IFC) designed to RefSeq for detection by pPCR EvaGreen assay (Dynamic Array FlexSix, Fluidigm Corporation). Each Flex Six IFC has a total of six independent partitions. Each partition has a 12 × 12 format (12 assay inlets and 12 sample inlets) and will be run independently as a separate experimental run. […]

human His6-TWEAK protein = molecular target: T1, human His6-TWEAK protein (Homo sapiens, UniProt O43508); test: SPR binding of peptides to immobilized His6-TWEAK; settings: 25 °C, 1:1 Langmuir global fit, representative of at least three independent experiments
T1 construct: purchased R&D Systems
T1 sequence (O43508 97-249 limits assumed): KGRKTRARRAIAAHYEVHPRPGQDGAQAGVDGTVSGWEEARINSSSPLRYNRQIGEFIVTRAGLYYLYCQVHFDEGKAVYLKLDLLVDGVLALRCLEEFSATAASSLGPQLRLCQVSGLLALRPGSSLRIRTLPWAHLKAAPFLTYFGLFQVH
Excerpt: SPR biosensor interaction analysis, a label-free screening approach, was used for real-time monitoring of the kinetics and affinity of peptide hits to TWEAK previously identified by cell-based screening. Peptides from pools 1 and 5 were selected both as positive (49, 30, 35 and 43) and negative hits (1 and 42). For our purposes, TWEAK was chosen as ligand, while peptides were chosen as analytes and passed across ligand-derivatized surface. Nitrilotriacetic acid-coated sensor chips (NTA chip) and a coupling approach that results in the capture of a His6-protein in a non-random orientation by the His6 epitope prior to direct free amine-based covalent coupling was used for histidine-tagged TWEAK immobilization.
After chip validation, peptides selected on our cell-based microarray screening were tested.
For each titration, a zero-analyte surface as a control was subtracted from test sensorgram as well as non-specific binding to the blank flow cell without protein; and the chip surface was regenerated in order to remove any remaining analyte. The black curves show the experimental data, while the overlaid red lines represent a global fit of the entire data set to a 1:1 Langmurian interaction model. The fitting process provided both kinetic association and dissociation rate constants (Ka and Kd), as well as equilibrium dissociation constant (KD) values indicated in Figure 6.
Binding assays were performed at 25 °C in a Biacore 3000 instrument (GE Healthcare, Uppsala, Sweden) using nitrilotriacetic (NTA) sensor chips (GE Healthcare) and HBS-EP (0.01 M HEPES pH 7.4, 0.15 M NaCl, 3 mM EDTA, 0.005 % v/v Surfactant P20) as running buffer. Histidine-tagged human TWEAK (His6-TWEAK) protein (R&D Systems, Minneapolis, MN, USA) was covalently immobilized on the sensor surface using a capture coupling method. Briefly, the NTA surface was first stabilized by injection of regeneration buffer (20 μL EDTA-containing running buffer at 20 μL/min) followed by Ni^2+ binding to the surface (40 μL of 500 μM NiCl2 in running buffer at 20 μL/min). The carboxymethyl dextran surface was then activated for primary amine coupling by injecting coupling solution (30 μL of a 1:1 N-hydroxysuccinimide (NHS)/1-ethyl-3-[3-(dimethylamino)-propyl]carbodiimide hydrochloride (EDC) mixture at 5 μL/min). His6-TWEAK protein in pH 7.4 running buffer was then injected over the surface (60 μL of 10 μg/mL His6-TWEAK at 5 μL/min). To block uncoupled primary amines on the sensor surface, ethanolamine was passed over the surface (35 μL 1M ethanolamine at 5 μL/min). Ligand surfaces were finally conditioned with a 20 µL injection of regeneration solution containing 350 mM EDTA at 20 μL/min. Immobilization levels ranged from 1500 to 7000 resonance units (RUimmob) to test different ligand densities. A blank flow cell on the chip was created by simple injection of 20 μL of regeneration buffer injected over the sensor surface.
Binding experiments using a monoclonal anti-TWEAK antibody (Abcam ref. 199405, Cambridge, UK) were run to ascertain adequate functionalization of the immobilized surface. Selected synthetic TWEAK-Fn14 inhibitory peptides at two-fold serial dilutions from 800 µM to 0 µM in running buffer were flown over the chip for 5 min at 35 µL/min. The dissociation phase was monitored for 10 min at the same flow rate and followed by a regeneration step with 10 µL of 18 mM NaOH. Specific binding responses for each channel were obtained by double referencing; subtracting non-specific binding to the blank flow cell plus an internal reference standard, namely buffer injection response. Each sample was run in triplicate. The experimental data were fitted to a 1:1 Langmuir binding model by the BIAevaluation software version 4.1 (GE Healthcare, Uppsala, Sweden).

[2] = individual peptides, BRV5 + TWEAK, mean of replicate columns
[3] = individual peptides, BRV5 + TWEAK, replicate column 1
[4] = individual peptides, BRV5 + TWEAK, replicate column 2
[5] = individual peptides, BRV5 + TWEAK, normalized to NARS2, listed as P3

Substance: TKGGGTADA [Peptide 3]
regulation of probe genes by individual peptides ([1]; BRV5 + TWEAK 25 ng/mL, peptides 450 µM): induced a higher level of expression of the gene
BIRC2 mRNA expression (normalized to NARS2) [1, 2]: 0.7197
HSP90B1 mRNA expression (normalized to NARS2) [1, 2]: 3.909
IL6 mRNA expression (normalized to NARS2) [1, 2]: 0.003239
JUN mRNA expression (normalized to NARS2) [1, 2]: 0.1441
MAP4K4 mRNA expression (normalized to NARS2) [1, 2]: 0.2389
MAPK14 mRNA expression (normalized to NARS2) [1, 2]: 0.2205
NFKB2 mRNA expression (normalized to NARS2) [1, 2]: 0.05335
TNFRSF12A mRNA expression (normalized to NARS2) [1, 2]: 0.03024
TRAF2 mRNA expression (normalized to NARS2) [1, 2]: 0.009427
BIRC2 mRNA expression (normalized to NARS2) [1, 3]: 0.6856
HSP90B1 mRNA expression (normalized to NARS2) [1, 3]: 3.773
IL6 mRNA expression (normalized to NARS2) [1, 3]: 0.004016
JUN mRNA expression (normalized to NARS2) [1, 3]: 0.1498
MAP4K4 mRNA expression (normalized to NARS2) [1, 3]: 0.2356
MAPK14 mRNA expression (normalized to NARS2) [1, 3]: 0.2165
NFKB2 mRNA expression (normalized to NARS2) [1, 3]: 0.05516
TNFRSF12A mRNA expression (normalized to NARS2) [1, 3]: 0.03211
TRAF2 mRNA expression (normalized to NARS2) [1, 3]: 0.009734
BIRC2 mRNA expression (normalized to NARS2) [1, 4]: 0.7537
HSP90B1 mRNA expression (normalized to NARS2) [1, 4]: 4.045
IL6 mRNA expression (normalized to NARS2) [1, 4]: 0.002462
JUN mRNA expression (normalized to NARS2) [1, 4]: 0.1383
MAP4K4 mRNA expression (normalized to NARS2) [1, 4]: 0.2421
MAPK14 mRNA expression (normalized to NARS2) [1, 4]: 0.2245
NFKB2 mRNA expression (normalized to NARS2) [1, 4]: 0.05153
TNFRSF12A mRNA expression (normalized to NARS2) [1, 4]: 0.02838
TRAF2 mRNA expression (normalized to NARS2) [1, 4]: 0.00912
BIRC2 expression Z-Score [1, 5]: 1.1157 and 1.116
HSP90B1 expression Z-Score [1, 5]: 2.9702 and 2.97
IL6 expression Z-Score [1, 5]: 1.1687 and 1.169
JUN expression Z-Score [1, 5]: 0.5369
MAP4K4 expression Z-Score [1, 5]: 1.3444 and 1.344
MAPK14 expression Z-Score [1, 5]: 0.3511
NFKB2 expression Z-Score [1, 5]: 1.2258 and 1.226
TNFRSF12A expression Z-Score [1, 5]: 1.1044 and 1.104
TRAF2 expression Z-Score [1, 5]: -0.4866

kon (human His6-TWEAK protein; HBS-EP pH 7.4, Biacore 3000, NTA chip, read-out: ka): 20.5 M⁻¹ s⁻¹
Kd (human His6-TWEAK protein; figure 6, HBS-EP pH 7.4, 6.25 µM to 800 µM peptide): 173 µM
Substance: TTDGSTGDDLQA-NH2 [Peptide 43]
